Source: US6911524B1 (priority 1999, dated 2005)
Bridge positions count the residues as written; N and C are the ends. Peptide text beside a SMILES is read from it.

Assays:
Assay type in all cases: cell-based
Perkinsus marinus = assay: Antiprotozoan activity, parasite viability; details: Perkinsus marinus in seawater, 1 hour at room temperature, viability by acridine orange / ethidium bromide staining
Description: The oyster-parasite protozoan Perkinsus marinus is cultured in DMEM medium (GIBCO), according to the protocol described by GAUTHIER and VASTA [J. Invertebr. Pathol., 66, 156-168, (1995)].
10 μM of purified peptide are added to 4×10^4 P. marinus, in seawater (final volume 20 μl) . The mixture is incubated for 1 hour at room temperature. The viability of the parasites is estimated by staining with acridine orange and with ethidium bromide, as described by MORVAN et al. [J. Invertebr. Pathol., 69, 177-82 (1997)]. The maximum viability is evaluated, as a positive control, in samples to which the peptide has not been added.

Micrococcus luteus = assay: Antibacterial assay, MBC determination; details: summary of table 1
Description: (§1) The minimum […] concentration (MBC) of the peptides was determined according to the protocol described by HANCOCK et al.
(§2) A series of successive doubling dilutions of the peptides, in an aqueous solution containing 0.01% of acetic acid and 0.2% of bovine serum albumin (BSA), is prepared.
(§3) 10 μl aliquots of each dilution are incubated in sterile 96-well polypropylene microtitration plates, in the presence of 100 μl of bacterial suspension at a starting optical density of A600=0.001, in MUELLER HINTON BROTH liquid medium. The incubation is carried out for 18 h at 37° C. with stirring, except in the case of the marine bacteria, for which the incubation is carried out 25° C. The MBC is determined by plating out, onto solid MUELLER HINTON AGAR medium, the content of the wells corresponding to the first 3 dilutions for which no bacterial growth is observed, and incubating at 37° C. for 18 hours. The lowest concentration of peptide which prevents any residual formation of colonies corresponds to the MBC.

Escherichia coli D31 = assay: Antibacterial assay, MBC determination; details: summary of table 1
Description: as §1, §2, §3

Fusarium oxysporum = assay: Antifungal activity, growth inhibition in liquid phase (MIC); details: summary of table 1
Description: The antifungal activity was determined by calculating the MIC (minimum inhibitory concentration) in a test of inhibition of Fusarium oxysporum growth in liquid phase, according to the protocol described by FELHBAUM et al. [J. Biol. Chem., 269: 33159-63, (1994)].
A series of successive doubling dilutions of the peptides is prepared as indicated above for determining the antibacterial activity.
80 μl of spores suspended (final concentration 10^4 spores/ml) in Potato Dextrose Broth medium (DIFCO) are added to 10 μl of peptide solution in sterile 96-well polypropylene microtitration plates. The final volume is adjusted to 100 μl by adding water. The growth inhibition is determined after incubation for 24 hours at 25° C. in the dark, by observation under a microscope and measurement of the increase in the OD600. The value of the MIC corresponds to a range (a-b) of peptide concentrations, in which (a) represents the highest concentration at which growth is observed, and (b) represents the lowest concentration which induces 100% growth inhibition.

SMILES: CSCC[C@@H]1NC(=O)[C@H](CCCCN)NC(=O)CNC(=O)[C@@H]2CCCN2C(=O)[C@H](Cc2c[nH]cn2)NC(=O)[C@H](CC(C)C)NC(=O)[C@H](C(C)C)NC(=O)[C@H](CCCNC(=N)N)NC(=O)[C@@H]2CSSC[C@H](NC(=O)[C@H](C)NC(=O)[C@H](Cc3c[nH]cn3)NC(=O)[C@H](CO)NC(=O)[C@@H](N)Cc3c[nH]cn3)C(=O)N[C@@H]([C@@H](C)O)C(=O)N[C@@H](CO)C(=O)N[C@@H](Cc3ccc(O)cc3)C(=O)N[C@@H](Cc3c[nH]c4ccccc34)C(=O)N[C@H]3CSSC[C@H](NC1=O)C(=O)N[C@@H](C)C(=O)N[C@H]1CSSC[C@H](NC(=O)[C@H](Cc4ccccc4)NC(=O)[C@H](CCCCN)NC(=O)CNC3=O)C(=O)NCC(=O)N[C@@H]([C@@H](C)O)C(=O)N[C@@H](C)C(=O)N[C@@H](CO)C(=O)N[C@@H](CSSC[C@@H](C(=O)N[C@@H](CO)C(=O)N[C@@H](CCCNC(=N)N)C(=O)O)NC(=O)[C@H](Cc3c[nH]cn3)NC(=O)[C@H](C(C)C)NC1=O)C(=O)N[C@@H]([C@@H](C)O)C(=O)N[C@@H](Cc1c[nH]cn1)C(=O)N[C@@H](Cc1ccc(O)cc1)C(=O)N[C@@H](CC(C)C)C(=O)N2 [Myticin a] (H-HSHACTSYWCGKFCGTASCTHYLCRVLHPGKMCACVHCSR-OH; disulfide 5-24, 10-33, 14-35, 19-38; N-terminus and C-terminus assumed)
- Antiprotozoan activity (biological activity expressed in μM) (Perkinsus marinus): >20 μM

SMILES: CC(C)C[C@@H]1NC(=O)[C@H](CCCCN)NC(=O)CNC(=O)[C@H](CCCNC(=N)N)NC(=O)[C@H](Cc2c[nH]cn2)NC(=O)[C@H](CC(C)C)NC(=O)[C@H](CC(N)=O)NC(=O)[C@H](CCCNC(=N)N)NC(=O)[C@@H]2CSSC[C@H](NC(=O)[C@@H](NC(=O)[C@H](Cc3c[nH]cn3)NC(=O)[C@@H]3CCCN3C(=O)[C@@H](N)Cc3c[nH]cn3)C(C)C)C(=O)N[C@@H]([C@@H](C)O)C(=O)N[C@@H](CO)C(=O)N[C@@H](Cc3ccc(O)cc3)C(=O)N[C@@H](Cc3ccc(O)cc3)C(=O)N[C@H]3CSSC[C@H](NC1=O)C(=O)N[C@@H](Cc1ccccc1)C(=O)N[C@H]1CSSC[C@H](NC(=O)[C@H](Cc4ccccc4)NC(=O)[C@H](CCCCN)NC(=O)[C@H](CO)NC3=O)C(=O)NCC(=O)N[C@@H]([C@@H](C)O)C(=O)N[C@@H](C)C(=O)NCC(=O)N[C@@H](CSSC[C@@H](C(=O)N[C@@H](CO)C(=O)N[C@@H](CCCNC(=N)N)C(=O)O)NC(=O)[C@H](Cc3c[nH]cn3)NC(=O)[C@H](CC(C)C)NC1=O)C(=O)N[C@@H]([C@@H](C)O)C(=O)N[C@@H](CCCNC(=N)N)C(=O)N[C@@H](Cc1ccc(O)cc1)C(=O)NCC(=O)N2 [Myticin b] (H-HPHVCTSYYCSKFCGTAGCTRYGCRNLHRGKLCFCLHCSR-OH; disulfide 5-24, 10-33, 14-35, 19-38; N-terminus and C-terminus assumed)
- Activity on Micrococcus luteus (in words) (Micrococcus luteus): more active than the Myticin a peptide
- Activity on Escherichia coli compared (in words) (Escherichia coli D31): more active than the Myticin a peptide
- Activity on Fusarium oxysporum compared (in words) (Fusarium oxysporum): more active than the Myticin a peptide
- Antiprotozoan activity (biological activity expressed in μM) (Perkinsus marinus): >20 μM
